Measurements taken from patent US20240408086A1, “USE OF LUVADAXISTAT FOR THE TREATMENT OF COGNITIVE IMPAIRMENT” (TAKEDA PHARMACEUTICAL COMPANY LIMITED, priority 2021, published 2024).
Where two headings read alike, the source gives them in different places.

Tested on: adult patients with persistent negative symptoms of schizophrenia
Assay type: in vivo, human
Details: for SCoRS Interviewer Total Score, Difference from Placebo for Week 12, LS Mean (SE) / SCoRS Interviewer Total Score, Adjusted Change from Baseline to Week 12, LS Mean (SE): MMRM; for SCoRS Interviewer Total Score, Difference from Placebo for Week 12, LS Mean (SE) / SCoRS Interviewer Total Score, Adjusted Change from Baseline to Week 12, LS Mean (SE) / SCoRS Interviewer Total Score, Change from Baseline to Week 12, Mean (SD) / SCoRS Interviewer Total Score, Change from Baseline to Week 12, Median / SCoRS Interviewer Total Score, Week 12, Mean (SD) / SCoRS Interviewer Total Score, Week 12, Median: preliminary analysis
Description: To assess changes in cognitive impairment associated with schizophrenia (CIAS), secondary endpoints included the 12-week change from baseline in the Brief Assessment of Cognition in Schizophrenia (BACS) composite score, a measure of cognition across multiple domains, and the Schizophrenia Cognition Rating Scale (SCORS) score, a measure of day-to-day cognitive functioning requiring input from an adult informant. Secondary endpoints were not corrected for multiplicity.
The SCORS is an interview-based measure of cognitive functioning that was developed to specifically assess aspects of cognitive functioning in participants with schizophrenia. The items assess the 7 cognitive domains of attention, memory, reasoning and problem solving, working memory, processing speed, language functions, and social cognition. The SCORS global total scores is the sum of the 20 items, and it varies from 20 to 80 with 20 being the best outcome and 80 being the worst.

## O=c1[nH]nc(CCc2ccc(C(F)(F)F)cc2)cc1O [Compound (I), luvadaxistat]
50 mg once daily, 12 weeks, p=0.011, not corrected for multiplicity
  SCoRS interviewer total score, effect size versus placebo: 0.4
50 mg once daily, one-sided unadjusted p 0.007*
  SCoRS Interviewer Total Score, Difference from Placebo for Week 12, LS Mean (SE): −2.4 (0.94)
50 mg once daily
  SCoRS Interviewer Total Score, Adjusted Change from Baseline to Week 12, LS Mean (SE): −3.7 (0.77)
  SCoRS Interviewer Total Score, Change from Baseline to Week 12, Mean (SD): −4.0 (5.93)
  SCoRS Interviewer Total Score, Change from Baseline to Week 12, Median: −3.0
  SCoRS Interviewer Total Score, Week 12, Mean (SD): 35.5 (10.91)
  SCoRS Interviewer Total Score, Week 12, Median: 32.0
50 mg once daily, placebo −1.6
  SCoRS interviewer total score, 12-week LS mean change from baseline: −3.8
125 mg once daily, one-sided unadjusted p 0.236
  SCoRS Interviewer Total Score, Difference from Placebo for Week 12, LS Mean (SE): −0.7 (0.96)
125 mg once daily
  SCoRS Interviewer Total Score, Adjusted Change from Baseline to Week 12, LS Mean (SE): −2.1 (0.77)
  SCoRS Interviewer Total Score, Change from Baseline to Week 12, Mean (SD): −2.1 (5.89)
  SCoRS Interviewer Total Score, Change from Baseline to Week 12, Median: −2.0
  SCoRS Interviewer Total Score, Week 12, Mean (SD): 36.1 (9.69)
  SCoRS Interviewer Total Score, Week 12, Median: 36.5
500 mg once daily, one-sided unadjusted p 0.449
  SCoRS Interviewer Total Score, Difference from Placebo for Week 12, LS Mean (SE): −0.1 (0.98)
500 mg once daily
  SCoRS Interviewer Total Score, Adjusted Change from Baseline to Week 12, LS Mean (SE): −1.5 (0.84)
  SCoRS Interviewer Total Score, Change from Baseline to Week 12, Mean (SD): −2.4 (5.34)
  SCoRS Interviewer Total Score, Change from Baseline to Week 12, Median: −2.0
  SCoRS Interviewer Total Score, Week 12, Mean (SD): 39.4 (9.60)
  SCoRS Interviewer Total Score, Week 12, Median: 39.0
